According to the NIST ThermoML archive (doi:10.1016/j.jct.2019.02.011):
Numbers after ± are expanded uncertainties.

Assay: xn = mol fraction of the nth substance listed
Conditions: Liquid, Vibrating tube method

COC(=O)OC [dimethyl carbonate] + CO
Conditions	mass density [kg/m3]
288.15 K, 25000 kPa, x1 = 0.6993	1051 ± 1.5
288.15 K, 25000 kPa, x1 = 0.7496	1059.86 ± 1.5
288.15 K, 25000 kPa, x1 = 0.799	1067.94 ± 1.6
288.15 K, 25000 kPa, x1 = 0.837	1073.92 ± 1.6
288.15 K, 25000 kPa, x1 = 0.9093	1084.6 ± 1.6
288.15 K, 25000 kPa, x1 = 0.9239	1086.65 ± 1.6
288.15 K, 25000 kPa, x1 = 0.9575	1091.29 ± 1.6
288.15 K, 25000 kPa, x1 = 0.9861	1095.14 ± 1.6
288.15 K, 25000 kPa, x1 = 1	1096.99 ± 0.62
288.15 K, 30000 kPa, x1 = 0.0253	834.68 ± 1.4
288.15 K, 30000 kPa, x1 = 0.0503	848.4 ± 1.4
288.15 K, 30000 kPa, x1 = 0.0745	861.06 ± 1.4
288.15 K, 30000 kPa, x1 = 0.101	874.32 ± 1.4
288.15 K, 30000 kPa, x1 = 0.1502	897.03 ± 1.4
288.15 K, 30000 kPa, x1 = 0.2059	920.43 ± 1.4
288.15 K, 30000 kPa, x1 = 0.25	937.36 ± 1.4
288.15 K, 30000 kPa, x1 = 0.3004	955.1 ± 1.5
288.15 K, 30000 kPa, x1 = 0.3426	968.8 ± 1.5
288.15 K, 30000 kPa, x1 = 0.3984	985.59 ± 1.5
288.15 K, 30000 kPa, x1 = 0.4514	1000.22 ± 1.5
288.15 K, 30000 kPa, x1 = 0.5054	1013.92 ± 1.5
288.15 K, 30000 kPa, x1 = 0.5509	1024.6 ± 1.5
288.15 K, 30000 kPa, x1 = 0.6002	1035.34 ± 1.5
288.15 K, 30000 kPa, x1 = 0.6469	1044.75 ± 1.5
288.15 K, 30000 kPa, x1 = 0.6993	1054.61 ± 1.5
288.15 K, 30000 kPa, x1 = 0.7496	1063.48 ± 1.6
288.15 K, 30000 kPa, x1 = 0.799	1071.56 ± 1.6
288.15 K, 30000 kPa, x1 = 0.837	1077.55 ± 1.6
288.15 K, 30000 kPa, x1 = 0.9093	1088.24 ± 1.6
288.15 K, 30000 kPa, x1 = 0.9239	1090.28 ± 1.6
288.15 K, 30000 kPa, x1 = 0.9575	1094.93 ± 1.6
288.15 K, 30000 kPa, x1 = 0.9861	1098.78 ± 1.6
288.15 K, 30000 kPa, x1 = 1	1100.63 ± 0.63
288.15 K, 35000 kPa, x1 = 0.0253	838.22 ± 1.4
288.15 K, 35000 kPa, x1 = 0.0503	851.95 ± 1.4
288.15 K, 35000 kPa, x1 = 0.0745	864.56 ± 1.4
288.15 K, 35000 kPa, x1 = 0.101	877.83 ± 1.4
288.15 K, 35000 kPa, x1 = 0.1502	900.56 ± 1.4
288.15 K, 35000 kPa, x1 = 0.2059	923.97 ± 1.4
288.15 K, 35000 kPa, x1 = 0.25	940.91 ± 1.4
288.15 K, 35000 kPa, x1 = 0.3004	958.61 ± 1.5
288.15 K, 35000 kPa, x1 = 0.3426	972.32 ± 1.5
288.15 K, 35000 kPa, x1 = 0.3984	989.12 ± 1.5
288.15 K, 35000 kPa, x1 = 0.4514	1003.71 ± 1.5
288.15 K, 35000 kPa, x1 = 0.5054	1017.42 ± 1.5
288.15 K, 35000 kPa, x1 = 0.5509	1028.11 ± 1.5
288.15 K, 35000 kPa, x1 = 0.6002	1038.85 ± 1.5
288.15 K, 35000 kPa, x1 = 0.6469	1048.27 ± 1.5
288.15 K, 35000 kPa, x1 = 0.6993	1058.08 ± 1.5
288.15 K, 35000 kPa, x1 = 0.7496	1066.96 ± 1.6
288.15 K, 35000 kPa, x1 = 0.799	1075.04 ± 1.6
288.15 K, 35000 kPa, x1 = 0.837	1080.99 ± 1.6
288.15 K, 35000 kPa, x1 = 0.9093	1091.68 ± 1.6
288.15 K, 35000 kPa, x1 = 0.9239	1093.73 ± 1.6
288.15 K, 35000 kPa, x1 = 0.9575	1098.38 ± 1.6
288.15 K, 35000 kPa, x1 = 0.9861	1102.23 ± 1.6
288.15 K, 35000 kPa, x1 = 1	1104.08 ± 0.65
288.15 K, 40000 kPa, x1 = 0.0253	841.6 ± 1.4
288.15 K, 40000 kPa, x1 = 0.0503	855.33 ± 1.4
288.15 K, 40000 kPa, x1 = 0.0745	867.95 ± 1.4
288.15 K, 40000 kPa, x1 = 0.101	881.23 ± 1.4
288.15 K, 40000 kPa, x1 = 0.1502	903.97 ± 1.4
288.15 K, 40000 kPa, x1 = 0.2059	927.4 ± 1.4
288.15 K, 40000 kPa, x1 = 0.25	944.34 ± 1.5
288.15 K, 40000 kPa, x1 = 0.3004	962.05 ± 1.5
288.15 K, 40000 kPa, x1 = 0.3426	975.72 ± 1.5
288.15 K, 40000 kPa, x1 = 0.3984	992.53 ± 1.5
288.15 K, 40000 kPa, x1 = 0.4514	1007.07 ± 1.5
288.15 K, 40000 kPa, x1 = 0.5054	1020.79 ± 1.5
288.15 K, 40000 kPa, x1 = 0.5509	1031.49 ± 1.5
288.15 K, 40000 kPa, x1 = 0.6002	1042.19 ± 1.5
288.15 K, 40000 kPa, x1 = 0.6469	1051.61 ± 1.5
288.15 K, 40000 kPa, x1 = 0.6993	1061.43 ± 1.6
288.15 K, 40000 kPa, x1 = 0.7496	1070.31 ± 1.6
288.15 K, 40000 kPa, x1 = 0.799	1078.4 ± 1.6
288.15 K, 40000 kPa, x1 = 0.837	1084.34 ± 1.6
288.15 K, 40000 kPa, x1 = 0.9093	1094.99 ± 1.6
288.15 K, 40000 kPa, x1 = 0.9239	1097.04 ± 1.6
288.15 K, 40000 kPa, x1 = 0.9575	1101.69 ± 1.6
288.15 K, 40000 kPa, x1 = 0.9861	1105.55 ± 1.6
288.15 K, 40000 kPa, x1 = 1	1107.4 ± 0.67
293.15 K, 100 kPa, x1 = 0.0253	805.71 ± 1.4
293.15 K, 100 kPa, x1 = 0.0503	819.38 ± 1.4
293.15 K, 100 kPa, x1 = 0.0745	831.94 ± 1.4
293.15 K, 100 kPa, x1 = 0.101	844.99 ± 1.4
293.15 K, 100 kPa, x1 = 0.1502	867.43 ± 1.4
293.15 K, 100 kPa, x1 = 0.2059	890.58 ± 1.4
293.15 K, 100 kPa, x1 = 0.25	907.39 ± 1.4
293.15 K, 100 kPa, x1 = 0.3004	925.01 ± 1.4
293.15 K, 100 kPa, x1 = 0.3426	938.66 ± 1.4
293.15 K, 100 kPa, x1 = 0.3984	955.38 ± 1.5
293.15 K, 100 kPa, x1 = 0.4514	969.9 ± 1.5
293.15 K, 100 kPa, x1 = 0.5054	983.54 ± 1.5
293.15 K, 100 kPa, x1 = 0.5509	994.14 ± 1.5
293.15 K, 100 kPa, x1 = 0.6002	1004.83 ± 1.5
293.15 K, 100 kPa, x1 = 0.6469	1014.25 ± 1.5
293.15 K, 100 kPa, x1 = 0.6993	1024.07 ± 1.5
293.15 K, 100 kPa, x1 = 0.7496	1032.91 ± 1.5
293.15 K, 100 kPa, x1 = 0.799	1041.06 ± 1.5
293.15 K, 100 kPa, x1 = 0.837	1047.02 ± 1.5
293.15 K, 100 kPa, x1 = 0.9093	1057.71 ± 1.5
293.15 K, 100 kPa, x1 = 0.9239	1059.75 ± 1.5
293.15 K, 100 kPa, x1 = 0.9575	1064.38 ± 1.6
293.15 K, 100 kPa, x1 = 0.9861	1068.22 ± 1.6
293.15 K, 100 kPa, x1 = 1	1070.06 ± 0.56
293.15 K, 5000 kPa, x1 = 0.0253	810.46 ± 1.4
293.15 K, 5000 kPa, x1 = 0.0503	824.13 ± 1.4
293.15 K, 5000 kPa, x1 = 0.0745	836.69 ± 1.4
293.15 K, 5000 kPa, x1 = 0.101	849.75 ± 1.4
293.15 K, 5000 kPa, x1 = 0.1502	872.18 ± 1.4
293.15 K, 5000 kPa, x1 = 0.2059	895.35 ± 1.4
293.15 K, 5000 kPa, x1 = 0.25	912.16 ± 1.4
293.15 K, 5000 kPa, x1 = 0.3004	929.73 ± 1.4
293.15 K, 5000 kPa, x1 = 0.3426	943.38 ± 1.4
293.15 K, 5000 kPa, x1 = 0.3984	960.11 ± 1.5
293.15 K, 5000 kPa, x1 = 0.4514	974.63 ± 1.5
293.15 K, 5000 kPa, x1 = 0.5054	988.23 ± 1.5
293.15 K, 5000 kPa, x1 = 0.5509	998.83 ± 1.5
293.15 K, 5000 kPa, x1 = 0.6002	1009.48 ± 1.5
293.15 K, 5000 kPa, x1 = 0.6469	1018.9 ± 1.5
293.15 K, 5000 kPa, x1 = 0.6993	1028.72 ± 1.5
293.15 K, 5000 kPa, x1 = 0.7496	1037.51 ± 1.5
293.15 K, 5000 kPa, x1 = 0.799	1045.66 ± 1.5
293.15 K, 5000 kPa, x1 = 0.837	1051.63 ± 1.5
293.15 K, 5000 kPa, x1 = 0.9093	1062.27 ± 1.6
293.15 K, 5000 kPa, x1 = 0.9239	1064.31 ± 1.6
293.15 K, 5000 kPa, x1 = 0.9575	1068.94 ± 1.6
293.15 K, 5000 kPa, x1 = 0.9861	1072.78 ± 1.6
293.15 K, 5000 kPa, x1 = 1	1074.62 ± 0.57
293.15 K, 10000 kPa, x1 = 0.0253	814.95 ± 1.4
293.15 K, 10000 kPa, x1 = 0.0503	828.58 ± 1.4
293.15 K, 10000 kPa, x1 = 0.0745	841.14 ± 1.4
293.15 K, 10000 kPa, x1 = 0.101	854.2 ± 1.4
293.15 K, 10000 kPa, x1 = 0.1502	876.65 ± 1.4
293.15 K, 10000 kPa, x1 = 0.2059	899.82 ± 1.4
